Measured values from paper PMC10952897, “The Role of Cytochrome P450 AbyV in the Final Stages of Abyssomicin C Biosynthesis” (Angewandte Chemie (Weinheim an Der Bergstrasse, Germany), 2022).

Target: T1, AbyV (Micromonospora maris, UniProt F4F6Q5)
T1 construct: N-terminal His6 tag (pOPINF::abyV), E. coli BL21(DE3)
Assay: titration of substrate into buffered AbyV solution
Type: binding

T1 sequence (F4F6Q5 entry or part of it): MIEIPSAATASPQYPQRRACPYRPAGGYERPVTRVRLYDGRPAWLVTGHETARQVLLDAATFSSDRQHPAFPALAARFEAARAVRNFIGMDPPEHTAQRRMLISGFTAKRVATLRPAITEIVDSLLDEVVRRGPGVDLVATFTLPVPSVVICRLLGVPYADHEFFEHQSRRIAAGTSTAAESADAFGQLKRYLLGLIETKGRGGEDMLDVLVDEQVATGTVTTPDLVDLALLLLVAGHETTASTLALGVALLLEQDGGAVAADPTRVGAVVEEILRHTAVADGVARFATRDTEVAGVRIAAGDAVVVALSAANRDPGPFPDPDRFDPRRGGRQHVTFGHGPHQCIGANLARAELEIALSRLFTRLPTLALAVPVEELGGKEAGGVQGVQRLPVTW

Kd: 34 ± 7 µM
SMILES: C[C@@H]1C[C@H](C)C(=O)/C=C/[C@@H]2C=C[C@H](C)C[C@@]23OC(=O)C(=C3O)C1=O (mixture of isomers) [compound 3, spirotetronate 3]
